Assays:
[1] = In vivo cytokine assay, plasma of Renca tumor-bearing mice; parameters: species or system mouse
Method: Cytokines were measured in mouse plasma harvested at 3, 6, 24, or 48 hours after treatment with compounds or ADCs using a Milliplex MAP mouse cytokine/chemokine magnetic bead panel assay kit (MCYTOMAG-70k custom 11-plex kit: MCP1, MIP1α, MIP1β, TNFα, IFNγ, IL-10, IL-12p70, IL-6, IL-1β, IP10, RANTES) and analyzed using a Luminex™ MAGPIX™ Instrument System. Values that were outside of the standard curve range (<3.2 or […]) were excluded from calculation of the mean values.

Renca cancer cells = test: Renca tumor model, in vivo anti-tumor activity and weight change; conditions: Renca tumor-bearing mice
Method: In some experiments, Renca tumor cells were engineered to express the indicated murine or human target antigen.
When tumor volumes reached 100 mm^3, the mice were dosed with either compounds or ADCs by intraperitoneal or intravenous injection at the indicated dosing schedule and tumor volumes were monitored twice weekly. Compounds were formulated in 40% PEG400 in saline.
A syngeneic system was used to assess the ability of the STING agonist ADCs to induce immune responses in vivo and drive an anti-tumor immune response. The Renca system is a subcutaneous, mouse renal adenocarcinoma model. Female Balb/c mice were implanted with 2×10^6 Renca cells subcutaneously in the flank on day 0. When mean tumor size of 100 mm^3 (measured by using the formula Volume (mm^3)=0.5*Length*Width^2 where length is the longer dimension) was reached mice were randomized into treatment groups of ≥5 mice per group. Animals were then treated intraperitoneally (ADCs or compounds) or intravenously (compounds) with the indicated treatment every 7 days, for 3 doses total (or as indicated). Tumor length and width and the weight of the animals was measured throughout the study and tumor volume was calculated using the formula above. Animals were followed until the tumor volume reached ˜1000 mm^3; animals were then euthanized.

[2] = test system: THP1-Dual™ reporter cells; test: THP1-Dual cell reporter assay (IRF-Lucia luciferase reporter); format: cell-based, human
Outline: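 THP1-Dual monocytic cells (~100,000/well) were exposed to compound for 24 h (ADCs 48 h). Secreted IRF-driven Lucia luciferase in the supernatant was quantified by QUANTI-Luc luminescence.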

[3] = Renca tumor-bearing mice, 3 h, 1.86 mg/kg
[4] = Renca tumor-bearing mice, 6 h, 1.86 mg/kg
[5] = Renca tumor-bearing mice, 24 h, 1.86 mg/kg

## CCn1nc(C)cc1C(=O)Nc1nc2cc(C(N)=O)cc(OC)c2n1C/C=C/Cn1c(NC(=O)c2cc(C)nn2CC)nc2cc(C(N)=O)cc(OCCCN3CCOCC3)c21.O=C(O)C(F)(F)F.O=C(O)C(F)(F)F.O=C(O)C(F)(F)F [Compound A, (E)-1-(4-(5-carbamoyl-2-(1-ethyl-3-methyl-1H-pyrazole-5-carboxamido)-7-(3-morpholinopropoxy)-1H-benzo[d]imidazol-1-yl)but-2-en-1-yl)-2-(1-ethyl-3-methyl-1H-pyrazole-5-carboxamido)-7-methoxy-1H-benzo[d]imidazole-5-carboxamide tris(2,2,2-trifluoroacetate), reference compound]
[1]; [3]
  IL1β in plasma: 1.5 pg/mL
  IL12p70 in plasma: 0.2 pg/mL
  IL-6 in plasma: 3550 pg/mL
  IL-10 in plasma: 0.5 pg/mL
  IP10 in plasma: 4780 pg/mL
  MCP-1 in plasma: 14500 pg/mL
[1]; [4]
  IFNγ in plasma: 71.8 pg/mL
  IL1β in plasma: 0.6 pg/mL
  IL12p70 in plasma: 0.2 pg/mL
  IL-6 in plasma: 732 pg/mL
  IL-10 in plasma: < 3.2 pg/mL
  IP10 in plasma: 4980 pg/mL
[1]; [5]
  IFNγ in plasma: < 3.2 pg/mL
  IL1β in plasma: 0.3 pg/mL
  IL12p70 in plasma: < 3.2 pg/mL
  IL-6 in plasma: 16.4 pg/mL
  IL-10 in plasma: < 3.2 pg/mL
  IP10 in plasma: 890 pg/mL
[1]; plasma of tumor-bearing mice
  systemic pro-inflammatory cytokine (IL-6 and TNF) production: induced robust production of IL-6 and TNF
Renca cancer cells
  tolerability: less well tolerated
Renca cancer cells; q7dx3
  average weight loss after the 2nd dose: 6.2%
[2]; Homo sapiens, THP1-Dual, free compounds, 24 h, Lucia reporter signal, read-out: EC50
  EC50: 3 nM
[2]; free drug
  potency relative to other free compound: significantly more potent
